Numbered stars: 1 amine (or outer) side, 2 acyl side, 3 side chain; on linkers, the order of the positions; unused ones are H or OH. Bridge positions count the residues as written; N and C are the ends. Square brackets hold non-standard residues; d marks the D form. Side chains are listed from the residue outwards. Peptide text beside a SMILES is read from it. * marks the point of attachment. C18 diacid = O=C(O)CCCCCCCCCCCCCCCCC(=O)*; γGlu = O=C(O)[C@H](CCC(=O)[*:2])N[*:1]; Dab = NCC[C@H](N)C(=O)O; Aib = CC(C)(N)C(=O)O
Columns and labels:
[1] = biological target: T1, human amylin receptor (calcitonin receptor co-expressed with receptor activity modifying protein, RAMP3) (hAMYR3) (Homo sapiens, UniProt O60896+P30988); assay: cAMP production in 1321N1 cells with stable recombinant expression of human amylin receptor (hAMYR3); assay type: cell-based; details: for Ratio (selectivity hAMYR vs hCTR, ratio of EC50 values at the two receptors): EC50 hCTR / EC50 hAMYR3; for EC50: cAMP, 1321N1 cells, assay buffer with 0.1% BSA, read-out: EC50 (pM) hAMYR3
T1 construct: expressed in transfected cells
T1 sequence (P30988 25-474): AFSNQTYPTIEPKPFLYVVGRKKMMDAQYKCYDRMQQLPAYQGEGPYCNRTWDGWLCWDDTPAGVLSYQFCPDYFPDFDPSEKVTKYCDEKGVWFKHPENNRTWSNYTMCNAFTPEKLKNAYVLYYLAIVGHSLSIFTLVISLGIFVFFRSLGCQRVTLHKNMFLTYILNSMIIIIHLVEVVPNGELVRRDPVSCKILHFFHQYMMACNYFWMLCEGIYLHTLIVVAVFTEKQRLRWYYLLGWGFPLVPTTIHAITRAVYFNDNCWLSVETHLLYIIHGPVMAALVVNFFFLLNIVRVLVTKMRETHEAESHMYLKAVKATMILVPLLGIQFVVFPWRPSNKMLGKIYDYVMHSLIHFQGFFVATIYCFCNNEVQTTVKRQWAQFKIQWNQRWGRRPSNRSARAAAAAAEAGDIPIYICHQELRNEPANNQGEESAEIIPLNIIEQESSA
T1 sequence (O60896 24-148 partner): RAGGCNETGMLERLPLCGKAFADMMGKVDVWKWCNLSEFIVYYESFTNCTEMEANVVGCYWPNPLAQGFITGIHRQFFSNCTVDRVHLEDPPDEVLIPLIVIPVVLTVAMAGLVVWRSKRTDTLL
Outline: (§1)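 EC50 values come from 4-parameter logistic fits of HTRF cAMP signal, normalised to maximal calcitonin or amylin effect. Peptides were tested in duplicate for 30 min at RT in IBMX-containing (0.5 mM) BSA/HEPES buffer pH 7.4 on stable 1321N1 (human CTR, AMYR3) or HEK (rat CTR, AMYR3) lines.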

[2] = biological target: T2, human calcitonin receptor (hCTR) (Homo sapiens, UniProt P30988); assay: cAMP production in 1321N1 cells with stable recombinant expression of human calcitonin receptor (hCTR); assay type: cell-based; details: cAMP, 1321N1 cells, assay buffer with 0.1% BSA; read-out: EC50 (pM) hCTR
T2 construct: expressed in transfected cells
T2 sequence (P30988 25-474): T1 sequence (P30988 25-474)
Outline: as §1

| Compound | Ratio (selectivity hAMYR vs hCTR, ratio of EC50 values at the two receptors) [1] | EC50 [1] [pM] | EC50 [2] [pM] |
| --- | --- | --- | --- |
| CC[C@H](C)[C@H](NC(=O)[C@@H]1CCCN1C(=O)CNC(=O)[C@H](Cc1ccccc1)NC(=O)[C@H](CC(N)=O)NC(=O)C(C)(C)NC(=O)[C@H](CO)NC(=O)[C@H](CO)NC(=O)[C@H](Cc1c[nH]cn1)NC(=O)[C@H](CCCNC(=N)N)NC(=O)[C@H](CC(C)C)NC(=O)[C@H](Cc1ccccc1)NC(=O)[C@H](CC(N)=O)NC(=O)[C@H](C)NC(=O)[C@H](CC(C)C)NC(=O)[C@H](CCCNC(=N)N)NC(=O)[C@H](CCC(N)=O)NC(=O)[C@@H](NC(=O)[C@H](C)NC(=O)[C@@H]1CSSC[C@H](NC(=O)[C@@H](N)CCCCNC(=O)CC[C@H](NC(=O)CC[C@H](NC(=O)CCCCCCCCCCCCCCCCC(=O)O)C(=O)O)C(=O)O)C(=O)N[C@@H](CC(N)=O)C(=O)N[C@@H]([C@@H](C)O)C(=O)N[C@@H](C)C(=O)N[C@@H]([C@@H](C)O)C(=O)N1)[C@@H](C)O)C(=O)N[C@@H](CC(C)C)C(=O)N1CCC[C@H]1C(=O)N1CCC[C@H]1C(=O)N[C@H](C(=O)N[C@@H](CCC(=O)O)C(=O)N[C@H](C(=O)NCC(=O)N[C@@H](CO)C(=O)N[C@@H](CC(N)=O)C(=O)N[C@H](C(=O)N[C@@H](Cc1ccc(O)cc1)C(N)=O)[C@@H](C)O)C(C)C)[C@@H](C)O [Peptide 50, K(γE-γE-C18diacid)[CNTATC]ATQRLANFLRHSS(Aib)NFGPILPPTEVGSNTY-amide] (H-K([γGlu-γGlu-C18 diacid])CNTATCATQRLANFLRHSS[Aib]NFGPILPPTEVGSNTY-NH2; disulfide 2-7; N-terminus assumed) | 54 | 349 | 18900 |
| CC[C@H](C)[C@H](NC(=O)[C@@H]1CCCN1C(=O)CNC(=O)[C@H](Cc1ccccc1)NC(=O)[C@H](CC(N)=O)NC(=O)[C@H](CC(N)=O)NC(=O)[C@H](CO)NC(=O)[C@H](CO)NC(=O)[C@H](Cc1c[nH]cn1)NC(=O)C(C)(C)NC(=O)[C@H](CC(C)C)NC(=O)[C@H](Cc1ccccc1)NC(=O)[C@H](CC(N)=O)NC(=O)[C@H](C)NC(=O)[C@H](CC(C)C)NC(=O)[C@H](CCCNC(=N)N)NC(=O)[C@H](CCC(N)=O)NC(=O)[C@@H](NC(=O)[C@H](C)NC(=O)[C@@H]1CSSC[C@H](NC(=O)[C@H](CCCCN)NC(=O)[C@@H](N)CCCCNC(=O)CC[C@H](NC(=O)CCCCCCCCCCCCCCCCC(=O)O)C(=O)O)C(=O)N[C@@H](CC(N)=O)C(=O)N[C@@H]([C@@H](C)O)C(=O)N[C@@H](C)C(=O)N[C@@H]([C@@H](C)O)C(=O)N1)[C@@H](C)O)C(=O)N[C@@H](CC(C)C)C(=O)N1CCC[C@H]1C(=O)N1CCC[C@H]1C(=O)N[C@H](C(=O)N[C@@H](CC(N)=O)C(=O)N[C@H](C(=O)NCC(=O)N[C@@H](CO)C(=O)N[C@@H](CCC(=O)O)C(=O)N[C@H](C(=O)N[C@@H](Cc1ccc(O)cc1)C(N)=O)[C@@H](C)O)C(C)C)[C@@H](C)O [Peptide 142] (H-K([γGlu-C18 diacid])KCNTATCATQRLANFL[Aib]HSSNNFGPILPPTNVGSETY-NH2; disulfide 3-8; N-terminus assumed) | 3.1 | 730 | 2270 |
| CC[C@H](C)[C@H](NC(=O)C(C)(C)NC(=O)CNC(=O)[C@H](Cc1ccccc1)NC(=O)[C@H](CC(N)=O)NC(=O)[C@H](CCN)NC(=O)[C@H](CO)NC(=O)[C@H](CO)NC(=O)[C@H](Cc1c[nH]cn1)NC(=O)[C@@H](NC(=O)[C@H](CC(C)C)NC(=O)[C@H](Cc1ccccc1)NC(=O)[C@H](CC(N)=O)NC(=O)[C@H](C)NC(=O)[C@H](CC(C)C)NC(=O)[C@H](CCCNC(=N)N)NC(=O)[C@H](CCC(N)=O)NC(=O)[C@@H](NC(=O)[C@H](C)NC(=O)[C@@H]1CSSC[C@H](NC(=O)[C@H](CCCCN)NC(=O)[C@@H](N)CCCCNC(=O)CC[C@H](NC(=O)CCCCCCCCCCCCCCCCC(=O)O)C(=O)O)C(=O)N[C@@H](CC(N)=O)C(=O)N[C@@H]([C@@H](C)O)C(=O)N[C@@H](C)C(=O)N[C@@H]([C@@H](C)O)C(=O)N1)[C@@H](C)O)C(C)C)C(=O)N[C@@H](CC(C)C)C(=O)N1CCC[C@H]1C(=O)N1CCC[C@H]1C(=O)N[C@H](C(=O)N[C@@H](CC(N)=O)C(=O)N[C@H](C(=O)NCC(=O)N[C@@H](CO)C(=O)N[C@@H](CC(N)=O)C(=O)N[C@H](C(=O)N[C@@H](Cc1ccc(O)cc1)C(N)=O)[C@@H](C)O)C(C)C)[C@@H](C)O [Peptide 31, K(γE-C18diacid)K[CNTATC]ATQRLANFLVHSS(Dab)NFG(Aib)ILPPTNVGSNTY-amide] (H-K([γGlu-C18 diacid])KCNTATCATQRLANFLVHSS[Dab]NFG[Aib]ILPPTNVGSNTY-NH2; disulfide 3-8; N-terminus assumed) | 4 | 349 | 1280 |
| CC[C@H](C)[C@H](NC(=O)[C@@H]1CCCN1C(=O)CNC(=O)[C@H](Cc1ccccc1)NC(=O)[C@H](CC(N)=O)NC(=O)[C@H](CCN)NC(=O)[C@H](CO)NC(=O)[C@H](CO)NC(=O)[C@H](Cc1c[nH]cn1)NC(=O)C(C)(C)NC(=O)[C@H](CC(C)C)NC(=O)[C@H](Cc1ccccc1)NC(=O)[C@H](CC(N)=O)NC(=O)[C@H](C)NC(=O)[C@H](CC(C)C)NC(=O)[C@H](CCCNC(=N)N)NC(=O)[C@H](CCC(N)=O)NC(=O)[C@@H](NC(=O)[C@H](C)NC(=O)[C@@H]1CSSC[C@H](NC(=O)[C@@H](N)CCCCNC(=O)CC[C@H](NC(=O)CCCCCCCCCCCCCCCCC(=O)O)C(=O)O)C(=O)N[C@@H](CC(N)=O)C(=O)N[C@@H]([C@@H](C)O)C(=O)N[C@@H](C)C(=O)N[C@@H]([C@@H](C)O)C(=O)N1)[C@@H](C)O)C(=O)N[C@@H](CC(C)C)C(=O)N1CCC[C@H]1C(=O)N1CCC[C@H]1C(=O)N[C@H](C(=O)N[C@@H](CC(N)=O)C(=O)N[C@H](C(=O)NCC(=O)N[C@@H](CO)C(=O)N[C@@H](CC(N)=O)C(=O)N[C@H](C(=O)N[C@@H](Cc1ccc(O)cc1)C(N)=O)[C@@H](C)O)C(C)C)[C@@H](C)O [Peptide 150, K(γE-C18diacid)[CNTATC]ATQRLANFL(Aib)HSS(Dab)NFGPILPPTNVGSNTY-amide] (H-K([γGlu-C18 diacid])CNTATCATQRLANFL[Aib]HSS[Dab]NFGPILPPTNVGSNTY-NH2; disulfide 2-7; N-terminus assumed) | 23.4 | 179 | 4180 |
| CC[C@H](C)[C@H](NC(=O)[C@@H]1CCCN1C(=O)CNC(=O)[C@H](Cc1ccccc1)NC(=O)[C@H](CC(N)=O)NC(=O)[C@H](CC(N)=O)NC(=O)[C@H](CO)NC(=O)[C@H](CO)NC(=O)[C@H](Cc1c[nH]cn1)NC(=O)[C@@H](NC(=O)[C@H](CC(C)C)NC(=O)[C@H](Cc1ccccc1)NC(=O)[C@H](CC(N)=O)NC(=O)[C@H](C)NC(=O)[C@H](CC(C)C)NC(=O)[C@H](CCCNC(=N)N)NC(=O)[C@H](CCC(N)=O)NC(=O)[C@@H](NC(=O)[C@H](C)NC(=O)[C@@H]1CSSC[C@H](NC(=O)[C@H](CCCCN)NC(=O)[C@@H](N)CCCCNC(=O)CC[C@H](NC(=O)CCCCCCCCCCCCCCCCC(=O)O)C(=O)O)C(=O)N[C@@H](CC(N)=O)C(=O)N[C@@H]([C@@H](C)O)C(=O)N[C@@H](C)C(=O)N[C@@H]([C@@H](C)O)C(=O)N1)[C@@H](C)O)C(C)C)C(=O)NC(C)(C)C(=O)N1CCC[C@H]1C(=O)N1CCC[C@H]1C(=O)N[C@H](C(=O)N[C@@H](CC(N)=O)C(=O)N[C@H](C(=O)NCC(=O)N[C@@H](CO)C(=O)N[C@@H](CC(N)=O)C(=O)N[C@H](C(=O)N[C@@H](Cc1ccc(O)cc1)C(N)=O)[C@@H](C)O)C(C)C)[C@@H](C)O [Peptide 108, K(γE-C18diacid)K[CNTATC]ATQRLANFLVHSSNNFGPI(Aib)PPTNVGSNTY-amide] (H-K([γGlu-C18 diacid])KCNTATCATQRLANFLVHSSNNFGPI[Aib]PPTNVGSNTY-NH2; disulfide 3-8; N-terminus assumed) | 8 | 801 | 6810 |
